Values after ≈ are worked out from the molar mass of the structure shown. Active and inactive are the calls of the source. The calls are words filed in the database; no cut-off is given here.
Tests used:
Staphylococcus hominis [1] = assay: Antimicrobial activity against methicillin-resistant Staphylococcus hominis assessed as reduction in bacterial growth incubated for 24 hrs by two-fold broth dilution method; format: functional
Staphylococcus aureus [2] = assay: Antimicrobial activity against vancomycin-resistant Staphylococcus aureus assessed as reduction in bacterial growth incubated for 24 hrs by two-fold broth dilution method; format: functional
Streptomyces albus = assay: Antimicrobial activity against Streptomyces albus SHBC D11158 assessed as reduction in bacterial growth incubated for 24 hrs by two-fold broth dilution method; format: functional
Cell membrane [3] = assay: Disruption of cell membrane integrity in Staphylococcus aureus ATCC6538 assessed as increase in fluorescence intensity measured upto 36 mins ethidium bromide uptake assay; format: cell membranes
Cell membrane [4] = assay: Disruption of cell membrane integrity in methicillin resistant Staphylococcus aureus clinical isolate MRS153 assessed as increase in fluorescence intensity measured upto 36 mins ethidium bromide uptake assay; format: cell membranes
Staphylococcus aureus [5] = assay: Bactericidal activity against Staphylococcus aureus ATCC6538 at 5 ug/ml measured upto 150 mins; format: functional, organism-based; conditions: dose 5.0 µg/ml
Staphylococcus hominis [6] = assay: Bactericidal activity against multidrug-resistant Staphylococcus hominis at 5 ug/ml measured upto 150 mins; format: functional, organism-based; conditions: dose 5.0 µg/ml

Q: For `CN[C@H](CC(C)C)C(=O)N[C@H]1C(=O)N[C@@H](CC(N)=O)C(=O)N[C@H]2C(=O)N[C@H]3C(=O)N[C@H](C(=O)N[C@H](C(=O)O)c4cc(O)cc(O)c4-c4cc3ccc4O)[C@H](O)c3ccc(c(Cl)c3)Oc3cc2cc(c3O[C@@H]2O[C@H](CO)[C@@H](O)[C@H](O)[C@H]2O[C@H]2C[C@](C)(N)[C@H](O)[C@H](C)O2)Oc2ccc(cc2Cl)[C@H]1O` [VANCOMYCIN], which MIC (Staphylococcus hominis [1]) is on record?
A: Its MIC is 1 µg/mL (≈ 0.69 µM).

Q: What about the MIC (Staphylococcus aureus [2]) of the same compound?
A: The MIC was no less than 8 µg/mL.

Q: What about the MIC (Streptomyces albus) of the same compound?
A: The MIC was 2 µg/mL (≈ 1.38 µM).

Q: And the Activity (Cell membrane [3])?
A: The Activity was “inactive”.

Q: And the Activity (Cell membrane [4])?
A: Its Activity is “inactive”.

Q: What about the Activity (Staphylococcus aureus [5]) of the same compound?
A: Its Activity is “inactive”.

Q: What about the Activity (Staphylococcus hominis [6]) of the same compound?
A: The Activity was “inactive”.

Reference: ChEMBL document CHEMBL5537201, “Discovery of Unique Bis-Substituted Aromatic Amide Derivatives as Novel Highly Potent Antibiotics for Combating Methicillin-Resistant Staphylococcus aureus (MRSA)” (J Med Chem, 2024)
